Key:
Assay type in all cases: in vivo
[1] = system: redroot pigweed (Amaranthus retroflexus); test: Test G Pre-Emergence Protocol; conditions: Amaranthus retroflexus, pre-emergence, 312 h, evaluated after 13 days; for pest or weed control at 15.625 g/ha: 15.625 g ai/ha; for pest or weed control at 15.625 g/ha / pest or weed control at 250 g/ha: read-out: Pigweed, Redroot damage rating (100=total damage to plant; 0=no damage to plant); for pest or weed control at 62.5 g/ha: 62.5 g ai/ha, 100=total damage to plant, 0=no damage to plant, read-out: plant damage rating, Pigweed, Redroot; for pest or weed control at 250 g/ha: 250 g ai/ha
How it was run: (§1)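 Seeds were sown in standard soil and kept one day in a glasshouse (24/16° C day/night, 14 h light, 65% humidity), then sprayed with compound in acetone/water (50:50) containing 0.5% Tween 20 at 15.625, 62.5 or 250 g/ha. Damage was scored after 13 days (0 = none, 100 = total).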

[2] = system: corn (Zea mays); test: Test G Pre-Emergence Protocol; conditions: Zea mays, pre-emergence, 312 h, evaluated after 13 days; for plant injury at 15.625 g/ha: 15.625 g ai/ha; for plant injury at 15.625 g/ha / plant injury at 250 g/ha: read-out: Corn damage rating (100=total damage to plant; 0=no damage to plant); for plant injury at 62.5 g/ha: 62.5 g ai/ha, 100=total damage to plant, 0=no damage to plant, read-out: plant damage rating, Corn; for plant injury at 250 g/ha: 250 g ai/ha
How it was run: as §1

[3] = system: giant foxtail (Setaria faberi); test: Test G Pre-Emergence Protocol; conditions: Setaria faberi, pre-emergence, 312 h, evaluated after 13 days; for pest or weed control at 15.625 g/ha: 15.625 g ai/ha; for pest or weed control at 15.625 g/ha / pest or weed control at 250 g/ha: read-out: Foxtail, Giant damage rating (100=total damage to plant; 0=no damage to plant); for pest or weed control at 62.5 g/ha: 62.5 g ai/ha, 100=total damage to plant, 0=no damage to plant, read-out: plant damage rating, Foxtail, Giant; for pest or weed control at 250 g/ha: 250 g ai/ha
How it was run: as §1

[4] = system: velvetleaf (Abutilon theophrasti); test: Test G Pre-Emergence Protocol; conditions: Abutilon theophrasti, pre-emergence, 312 h, evaluated after 13 days; for pest or weed control at 15.625 g/ha: 15.625 g ai/ha; for pest or weed control at 15.625 g/ha / pest or weed control at 250 g/ha: read-out: Velvetleaf damage rating (100=total damage to plant; 0=no damage to plant); for pest or weed control at 62.5 g/ha: 62.5 g ai/ha, 100=total damage to plant, 0=no damage to plant, read-out: plant damage rating, Velvetleaf; for pest or weed control at 250 g/ha: 250 g ai/ha
How it was run: as §1

[5] = system: barnyardgrass (Echinochloa crus-galli); test: Test G Pre-Emergence Protocol; conditions: Echinochloa crus-galli, pre-emergence, 312 h, evaluated after 13 days; for pest or weed control at 15.625 g/ha: 15.625 g ai/ha, read-out: Barnyard grass damage rating (100=total damage to plant; 0=no damage to plant); for pest or weed control at 62.5 g/ha: 62.5 g ai/ha, 100=total damage to plant, 0=no damage to plant, read-out: plant damage rating, Barnyardgrass; for pest or weed control at 250 g/ha: 250 g ai/ha, read-out: Barnyardgrass damage rating (100=total damage to plant; 0=no damage to plant)
How it was run: as §1

[6] = system: ivy-leaved morning glory (Ipomoea hederacea); test: Test G Pre-Emergence Protocol; conditions: Ipomoea, pre-emergence, 312 h, evaluated after 13 days; for pest or weed control at 62.5 g/ha: 62.5 g ai/ha, 100=total damage to plant, 0=no damage to plant, read-out: plant damage rating, Morningglory, Ivy-leaved; for pest or weed control at 250 g/ha: 250 g ai/ha, read-out: Morningglory, Ivy-leaved damage rating (100=total damage to plant; 0=no damage to plant)
How it was run: as §1

[7] = system: redroot pigweed (Amaranthus retroflexus); test: Test G Post-Emergence Protocol; conditions: Amaranthus retroflexus, post-emergence, 312 h; for pest or weed control at 15.625 g/ha: 15.625 g ai/ha, evaluated after 13 days (100=total damage to plant; 0=no damage to plant), read-out: Pigweed, Redroot damage rating; for pest or weed control at 62.5 g/ha: 62.5 g ai/ha, read-out: Pigweed, Redroot damage rating (100=total damage to plant; 0=no damage to plant); for pest or weed control at 62.5 g/ha / pest or weed control at 250 g/ha: evaluated after 13 days; for pest or weed control at 250 g/ha: 250 g ai/ha, read-out: damage to plant, Pigweed, Redroot (100=total damage to plant; 0=no damage to plant)
How it was run: (§2)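 Foliar application was made 8 days after sowing, using an aqueous spray of the active in acetone/water (50:50) with 0.5% Tween 20, at doses of 15.625, 62.5 or 250 g/ha. Injury was assessed 13 days later, where 100 meant the plant was fully damaged.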

[8] = system: corn (Zea mays); test: Test G Post-Emergence Protocol; conditions: Zea mays, post-emergence, 312 h; for plant injury at 15.625 g/ha: 15.625 g ai/ha, evaluated after 13 days (100=total damage to plant; 0=no damage to plant), read-out: Corn damage rating; for plant injury at 62.5 g/ha: 62.5 g ai/ha, read-out: Corn damage rating (100=total damage to plant; 0=no damage to plant); for plant injury at 62.5 g/ha / plant injury at 250 g/ha: evaluated after 13 days; for plant injury at 250 g/ha: 250 g ai/ha, read-out: damage to plant, Corn (100=total damage to plant; 0=no damage to plant)
How it was run: as §2

[9] = system: giant foxtail (Setaria faberi); test: Test G Post-Emergence Protocol; conditions: Setaria faberi, post-emergence, 312 h; for pest or weed control at 15.625 g/ha: 15.625 g ai/ha, evaluated after 13 days (100=total damage to plant; 0=no damage to plant), read-out: Foxtail, Giant damage rating; for pest or weed control at 62.5 g/ha: 62.5 g ai/ha, read-out: Foxtail, Giant damage rating (100=total damage to plant; 0=no damage to plant); for pest or weed control at 62.5 g/ha / pest or weed control at 250 g/ha: evaluated after 13 days; for pest or weed control at 250 g/ha: 250 g ai/ha, read-out: damage to plant, Foxtail, Giant (100=total damage to plant; 0=no damage to plant)
How it was run: as §2

[10] = system: velvetleaf (Abutilon theophrasti); test: Test G Post-Emergence Protocol; conditions: Abutilon theophrasti, post-emergence, 312 h; for pest or weed control at 15.625 g/ha: 15.625 g ai/ha, evaluated after 13 days (100=total damage to plant; 0=no damage to plant), read-out: Velvetleaf damage rating; for pest or weed control at 62.5 g/ha: 62.5 g ai/ha, read-out: Velvetleaf damage rating (100=total damage to plant; 0=no damage to plant); for pest or weed control at 62.5 g/ha / pest or weed control at 250 g/ha: evaluated after 13 days; for pest or weed control at 250 g/ha: 250 g ai/ha, read-out: damage to plant, Velvetleaf (100=total damage to plant; 0=no damage to plant)
How it was run: as §2

[11] = system: barnyardgrass (Echinochloa crus-galli); test: Test G Post-Emergence Protocol; conditions: Echinochloa crus-galli, post-emergence, 312 h; for pest or weed control at 15.625 g/ha: 15.625 g ai/ha, evaluated after 13 days (100=total damage to plant; 0=no damage to plant), read-out: Barnyardgrass damage rating; for pest or weed control at 62.5 g/ha: 62.5 g ai/ha, read-out: Barnyardgrass damage rating (100=total damage to plant; 0=no damage to plant); for pest or weed control at 62.5 g/ha / pest or weed control at 250 g/ha: evaluated after 13 days; for pest or weed control at 250 g/ha: 250 g ai/ha, read-out: damage to plant, Barnyardgrass (100=total damage to plant; 0=no damage to plant)
How it was run: as §2

[12] = system: ivy-leaved morning glory (Ipomoea hederacea); test: Test G Post-Emergence Protocol; conditions: Ipomoea, post-emergence, 312 h; for pest or weed control at 15.625 g/ha: 15.625 g ai/ha, evaluated after 13 days (100=total damage to plant; 0=no damage to plant), read-out: Morningglory, Ivy-leaved damage rating; for pest or weed control at 62.5 g/ha: 62.5 g ai/ha, read-out: Morningglory, Ivy-leaved damage rating (100=total damage to plant; 0=no damage to plant); for pest or weed control at 62.5 g/ha / pest or weed control at 250 g/ha: evaluated after 13 days; for pest or weed control at 250 g/ha: 250 g ai/ha, read-out: damage to plant, Morningglory, Ivy-leaved (100=total damage to plant; 0=no damage to plant)
How it was run: as §2

Row | Structure (SMILES) | pest or weed control at 15.625 g/ha [1] | pest or weed control at 62.5 g/ha [1] | pest or weed control at 250 g/ha [1] | plant injury at 15.625 g/ha [2] | plant injury at 62.5 g/ha [2] | plant injury at 250 g/ha [2] | pest or weed control at 250 g/ha [3] | pest or weed control at 15.625 g/ha [4] | pest or weed control at 62.5 g/ha [4] | pest or weed control at 250 g/ha [4] | pest or weed control at 15.625 g/ha [5] | pest or weed control at 62.5 g/ha [5] | pest or weed control at 250 g/ha [5] | pest or weed control at 62.5 g/ha [6] | pest or weed control at 250 g/ha [6] | pest or weed control at 15.625 g/ha [7] | pest or weed control at 62.5 g/ha [7] | pest or weed control at 250 g/ha [7] | plant injury at 15.625 g/ha [8] | plant injury at 62.5 g/ha [8] | other results
1 | CN1C[C@@H](c2ccc(C(F)(F)F)cc2)[C@H](C(=O)Nc2ccc(Cl)nn2)C1=O (racemic) [Compound 1561] | 0% | 20% | 30% | 10% | 0% | 20% | 70% | 0% | 0% | 10% | 30% | 50% | 80% | 0% | 20% | 0% | 20% | 30% | 0% | 0% | pest or weed control at 15.625 g/ha [3]: 30%; pest or weed control at 62.5 g/ha [3]: 60%; plant injury at 250 g/ha [8]: 50%; pest or weed control at 15.625 g/ha [9]: 0%; pest or weed control at 62.5 g/ha [9]: 10%; pest or weed control at 250 g/ha [9]: 60%; pest or weed control at 15.625 g/ha [10]: 0%; pest or weed control at 62.5 g/ha [10]: 40%; pest or weed control at 250 g/ha [10]: 20%; pest or weed control at 15.625 g/ha [11]: 0%; pest or weed control at 62.5 g/ha [11]: 20%; pest or weed control at 250 g/ha [11]: 50%; pest or weed control at 15.625 g/ha [12]: 0%; pest or weed control at 62.5 g/ha [12]: 10%; pest or weed control at 250 g/ha [12]: 60%
2 | CN1C[C@@H](c2ccc(C(F)(F)F)cc2)[C@H](C(=O)Nc2nnc[nH]2)C1=O (racemic) [Compound 1562] | 0% | 0% | 0% | 0% | 0% | 0% | 30% | 0% | 0% | 0% | 0% | 0% | 20% | 0% | 0% | 0% | 10% | 20% | 0% | 10% | plant injury at 250 g/ha [8]: 0%; pest or weed control at 15.625 g/ha [9]: 0%; pest or weed control at 62.5 g/ha [9]: 0%; pest or weed control at 250 g/ha [9]: 20%; pest or weed control at 15.625 g/ha [10]: 0%; pest or weed control at 62.5 g/ha [10]: 0%; pest or weed control at 250 g/ha [10]: 0%; pest or weed control at 15.625 g/ha [11]: 0%; pest or weed control at 62.5 g/ha [11]: 0%; pest or weed control at 250 g/ha [11]: 20%; pest or weed control at 15.625 g/ha [12]: 0%; pest or weed control at 62.5 g/ha [12]: 0%; pest or weed control at 250 g/ha [12]: 0%
3 | Cc1nc(C(F)(F)F)ccc1NC(=O)[C@@H]1C(=O)N(C)C[C@H]1c1ccc(C(F)(F)F)cc1 (racemic) [Compound 1566] | 0% | 0% | 0% | 0% | 0% | 0% | 0% | 0% | 0% | 0% | 0% | 0% | 0% | 0% | 0% | 0% | 0% | 0% | 0% | 0% | pest or weed control at 15.625 g/ha [3]: 0%; pest or weed control at 62.5 g/ha [3]: 0%; pest or weed control at 15.625 g/ha ([6]; 15.625 g ai/ha, read-out: Morning-glory, Ivy-leaved damage rating (100=total damage to plant; 0=no damage to plant)): 0%; plant injury at 250 g/ha [8]: 0%; pest or weed control at 15.625 g/ha [9]: 0%; pest or weed control at 62.5 g/ha [9]: 0%; pest or weed control at 250 g/ha [9]: 0%; pest or weed control at 15.625 g/ha [10]: 0%; pest or weed control at 62.5 g/ha [10]: 0%; pest or weed control at 250 g/ha [10]: 0%; pest or weed control at 15.625 g/ha [11]: 0%; pest or weed control at 62.5 g/ha [11]: 10%; pest or weed control at 250 g/ha [11]: 20%; pest or weed control at 15.625 g/ha [12]: 0%; pest or weed control at 62.5 g/ha [12]: 0%; pest or weed control at 250 g/ha [12]: 0%

— patent publication US12077503B2, “Substituted cyclic amides and their use as herbicides” (FMC CORPORATION, priority 2015, dated 2024)
